Common to all, as to format: cell-based
In one test the test system is CH27 B cell lymphoma. Particulars: for Relative Activity (Hb(64-76) arbitrarily assigned 100): Fig. 4, from EC40 in apoptosis assay relative to wild-type peptide; for Induction of apoptosis of CH27: Fig. 5, 3.L2 clone, 24 h.
Test [1] has as its system 3.L2 TCR. Particulars: Fig. 3; CH27 prepulsed with 0.1 µM Hb(64-76).
Test [2] concerns 3.L2 TCR. The test can be described thus: T cell hybridoma agonist assay: IL-2 production by the 3.L2.12 hybridoma. Particulars: Fig. 6, single agonist assay, representative of at least three experiments.

Where no end group is shown, it is not given here. [ ]: non-standard residue; d: D form. Abu = CC[C@H](N)C(=O)O Where only a bound is given, the exact number is not on record here.

As to GKKVITAFCEGLK [C72], the “Relative Activity (Hb(64-76) arbitrarily assigned 100)” value (“Relative Activity” for short) in the test with CH27 B cell lymphoma is reported as 2.

Turning to GKKVITAFDEGLK [D72], the “Concentration at which slight inhibition of the 3.L2.12 response was seen” value (from here on “Concentration at which slight inhibition”) in the test with 3.L2 TCR [1] is > 100 µM. For the substance GKKVITAFEEGLK [E72], the “Induction of apoptosis of CH27” value with CH27 B cell lymphoma is reported as “negative”. Still for that read-out and setting: to GKKVITAFGEGLK [G72] belongs “did not induce any apoptosis”. With GKKVITAFLEGLK [L72], the “Induction of apoptosis of CH27” value in the test on CH27 B cell lymphoma is “did not induce any apoptosis”.

In the case of GKKVITAFMEGLK [M72], the “Concentration at which slight inhibition” value in the test with 3.L2 TCR [1] is recorded as > 100 µM. Regarding “GKKVITAFNEGLK [Hb(64-76), reference compound]”, the “Relative Activity” value in the test on CH27 B cell lymphoma is on record as 100. For the same substance, the “Concentration at which peptide is active (IL-2 production)” value in the test on 3.L2 TCR [2] is recorded as 0.01 µM. As to GKKVITAFSEGLK [$72], the “Induction of apoptosis of CH27” value in the test with CH27 B cell lymphoma is on record as “did not induce any apoptosis”. As to GKKVITAFTEGLK [T72], in the test on CH27 B cell lymphoma, the “Relative Activity” value turned out to be 2. Same read-out and setting: to GKKVITAFVEGLK [V72] belongs 2. Consider GKKVITAFYEGLK [Y72], for which the “Concentration at which slight inhibition” value in the test on 3.L2 TCR [1] is listed as > 100 µM. Regarding GKKVITAF[Abu]EGLK [Abu72], the “Relative Activity” value in the test with CH27 B cell lymphoma was 5.

The record behind these values is article PMC2192852 (The Journal of Experimental Medicine, 1996).
